Measurements: publication PMC7891399 (Journal of Clinical Pharmacology, 2020)
Like-named read-outs stand apart in the source and are kept apart here. Marks after values point to notes of the source that are not given here.

Assays:
[1] = Combined PANNA and iTAP comparison of pregnancy effect on TFV exposure; assay type: in vivo; settings: all groups of women (HIV with r/PI, HIV without r/PI, HBV monoinfection)
[2] = assay type: in vivo, women; settings: for AUC(0-t): female, human, plasma; for AUC0–24h Ratio Third Trimester/Postpartum GMR (90%CI) / Ctrough Ratio Third Trimester/Postpartum GMR (90%CI): paired data only
[3] = assay type: in vivo, women
[4] = healthy subjects, fed state; ref registration package; cited from earlier work
[5] = women with HBV, TDF monotherapy, paired data only

With `C[C@H](Cn1cnc2c(N)ncnc21)OCP(=O)(O)O` [TFV, tenofovir] the “TFV exposure decrease during the third trimester of pregnancy” value [1] was “approximately 25%”, the AUC(0-t) ([2]; oral) was 1840 ng·h/mL and the AUC(0-t) ([2]; oral, AUC0–24h Postpartum GM (95%CI), women with HIV, all patients (n = 59), postpartum) was 2840 ng·h/mL. The AUC(0-t) ([2]; po) was 1860 ng·h/mL, the “Ctrough Postpartum GM (95%CI)” value ([2]; women with HIV on non-r/PI (n = 27), postpartum) was 0.056 (0.050–0.064) µg/mL and the “Ctrough Third Trimester GM (95%CI)” value ([2]; women with HIV on non-r/PI (n = 27)) was 0.038 (0.033–0.043) µg/mL. The “AUC0–24h Ratio Third Trimester/Postpartum GMR (90%CI)” value ([2]; women with HIV on non-r/PI) was 0.74 (0.68–0.82), the “Ctrough Ratio Third Trimester/Postpartum GMR (90%CI)” value ([2]; women with HIV on non-r/PI) was 0.68 (0.62–0.75) and the “Ctrough decrease by pregnancy, on average” value (from here on “Ctrough decrease”) ([2]; women with HIV on non-r/PI-based regimens) was 32%. The “AUC0–24h lower during the third trimester compared to 1 month postpartum” value ([2]; women with HIV on non-r/PI-based regimens, intraindividual) was 26%, the “Ctrough Postpartum GM (95%CI)” value ([2]; women with HIV on r/PI (n = 32), postpartum) was 0.063 (0.053–0.075) µg/mL and the “Ctrough Third Trimester GM (95%CI)” value ([2]; women with HIV on r/PI (n = 32)) was 0.048 (0.043–0.054) ^b , ^c µg/mL. For the same compound, the “AUC0–24h Ratio Third Trimester/Postpartum GMR (90%CI)” value ([2]; women with HIV on r/PI) was 0.76 (0.69–0.83), the “Ctrough Ratio Third Trimester/Postpartum GMR (90%CI)” value ([2]; women with HIV on r/PI) was 0.81 (0.69–0.94) and the “Ctrough decrease” value ([2]; women with HIV on r/PI-based regimens) was 19%. For the same compound, the “Ctrough Postpartum GM (95%CI)” value ([2]; women with HIV, all patients (n = 59), postpartum) was 0.059 (0.053–0.066) µg/mL, the “Ctrough Third Trimester GM (95%CI)” value ([2]; women with HIV, all patients (n = 59)) was 0.043 (0.039–0.047) µg/mL and the “AUC0–24h Ratio Third Trimester/Postpartum GMR (90%CI)” value ([2]; women with HIV, all patients) was 0.75 (0.70–0.80). For the same compound, the “Ctrough Ratio Third Trimester/Postpartum GMR (90%CI)” value ([2]; women with HIV, all patients) was 0.74 (0.67–0.81), the AUC(0-t) ([3]; female, human, plasma, po) was 2350 ng·h/mL and the “Ctrough decrease” value ([3]; women with HBV) was 31%. The “AUC0–24h lower during the third trimester compared to 1 month postpartum” value ([3]; women with HBV receiving TDF monotherapy, intraindividual) was 21%, the “Ctrough Postpartum GM (95%CI)” value ([3]; women with HBV, TDF monotherapy (n = 137), 1 month postpartum) was 0.058 (0.055–0.061) µg/mL and the “Ctrough Third Trimester GM (95%CI)” value ([3]; women with HBV, TDF monotherapy (n = 137), third trimester (32 weeks)) was 0.039 (0.038–0.042) µg/mL. For the same compound, the “AUC0–24h Ratio Third Trimester/Postpartum GMR (90%CI)” value [3, 5] was 0.79 (0.78–0.80), the “Ctrough Ratio Third Trimester/Postpartum GMR (90%CI)” value [3, 5] was 0.69 (0.68–0.71) and the “mean AUC0–24h” value [4] was 2460 ± 830 ng·h/mL.
